The target of one test is T1, Drosophila OR47a (Drosophila melanogaster, UniProt P81921).
T1 construct: expressed in transfected cells
T1 sequence (P81921 1-385): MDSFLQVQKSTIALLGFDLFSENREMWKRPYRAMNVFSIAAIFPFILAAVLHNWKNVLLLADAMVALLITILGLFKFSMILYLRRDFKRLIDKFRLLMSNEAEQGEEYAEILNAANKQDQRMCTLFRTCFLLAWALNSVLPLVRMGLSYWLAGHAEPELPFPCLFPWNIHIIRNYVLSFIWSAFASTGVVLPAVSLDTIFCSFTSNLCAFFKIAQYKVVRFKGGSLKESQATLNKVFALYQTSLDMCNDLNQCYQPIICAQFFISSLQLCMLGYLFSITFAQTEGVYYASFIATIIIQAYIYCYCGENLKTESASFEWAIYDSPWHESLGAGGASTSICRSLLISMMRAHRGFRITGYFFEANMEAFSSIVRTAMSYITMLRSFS
T1 sequence (Q9VNB5 1-486 partner): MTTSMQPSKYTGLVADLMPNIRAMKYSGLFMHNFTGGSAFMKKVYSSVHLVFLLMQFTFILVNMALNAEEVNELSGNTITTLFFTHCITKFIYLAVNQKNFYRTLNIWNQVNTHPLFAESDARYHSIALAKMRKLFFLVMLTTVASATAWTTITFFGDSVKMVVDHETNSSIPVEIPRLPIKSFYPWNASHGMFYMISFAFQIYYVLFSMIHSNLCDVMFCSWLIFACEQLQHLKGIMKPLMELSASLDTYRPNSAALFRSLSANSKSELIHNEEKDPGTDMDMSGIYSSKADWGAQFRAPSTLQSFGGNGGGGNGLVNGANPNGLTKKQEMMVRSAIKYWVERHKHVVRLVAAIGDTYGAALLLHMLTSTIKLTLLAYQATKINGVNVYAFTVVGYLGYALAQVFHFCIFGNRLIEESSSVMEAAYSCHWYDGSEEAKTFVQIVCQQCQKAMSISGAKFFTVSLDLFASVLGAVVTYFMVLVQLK
In words: Calcium ion fluorescence (GCaMP6) assay, OR47a stable HEK293 cell line. Type of test: cell-based. As to conditions: for Average response: mean of biological replicates; for DF norm AVERAGE OR47a: threshold 0.05, below shown as 0. Put shortly:
(§1)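 Responses are VUAA1-normalized ΔF: each VOC-evoked calcium signal, (FMAX−F0)/F0 over 30 s after injection, divided by the same line's mean 50 µM VUAA1 response. Cells were doxycycline-induced HEK293 with GCaMP6 and the cognate Drosophila OR, in HEPES buffer pH 7.3; ligands tested 0.01–100 μM.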

A further test has as its target T2, Drosophila OR10a (Drosophila melanogaster, UniProt Q9VYZ1).
T2 construct: expressed in transfected cells
T2 sequence (Q9VYZ1 1-406): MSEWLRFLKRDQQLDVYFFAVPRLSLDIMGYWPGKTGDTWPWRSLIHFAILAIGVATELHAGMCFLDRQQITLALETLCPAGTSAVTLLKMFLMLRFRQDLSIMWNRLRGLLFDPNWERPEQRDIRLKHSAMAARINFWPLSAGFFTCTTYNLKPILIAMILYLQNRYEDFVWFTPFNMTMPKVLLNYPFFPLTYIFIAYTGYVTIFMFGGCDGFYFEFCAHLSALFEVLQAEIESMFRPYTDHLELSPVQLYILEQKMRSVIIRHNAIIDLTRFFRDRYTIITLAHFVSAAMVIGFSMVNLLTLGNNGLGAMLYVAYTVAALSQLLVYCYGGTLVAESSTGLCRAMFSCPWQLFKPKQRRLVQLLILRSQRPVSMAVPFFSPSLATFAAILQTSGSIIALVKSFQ
T2 sequence (Q9VNB5 1-486 partner): T1 sequence (Q9VNB5 1-486 partner)
The test is described as follows: Calcium ion fluorescence (GCaMP6) assay, OR10a stable HEK293 cell line. As to conditions: for DF norm AVERAGE OR10a: threshold 0.05, below shown as 0. Type of test: cell-based. Put shortly: as §1

[1] abbreviates: HEK293, read-out: OR47a response (VUAA1-normalized response).
Where [2] appears, read: ligand concentration 1 (unit not given).
The mark [3] stands for this setting: ligand concentration 10 (unit not given).
[4] abbreviates: ligand concentration 100 (unit not given).

Like-named read-outs stand apart in the source and are kept apart here.

For the compound `CCOC(=O)CC` [ethyl propionate], the activation at 1 µM at Drosophila OR47a (setting [1]) was found to be 0%; on Drosophila OR10a (HEK293, 1 μM VOC, 50 μM VUAA1 = 1, responses not exceeding 0.05 considered 0, read-out: OR10a Average response (VUAA1-normalized)), 1.56%; on Drosophila OR10a (HEK293, read-out: OR10a response (VUAA1-normalized response), VOC concentration 1 μM), 0%. Further, the activation at 10 µM on Drosophila OR47a (setting [1]) amounted to 0%; at Drosophila OR10a (HEK293, 10 μM VOC, 50 μM VUAA1 = 1, responses not exceeding 0.05 considered 0, read-out: OR10a Average response (VUAA1-normalized)), 1.89%; at Drosophila OR10a (HEK293, read-out: OR10a response (VUAA1-normalized response), VOC concentration 10 μM), 0%. Also, the activation at 100 µM at Drosophila OR47a (setting [1]) came to 0%; on Drosophila OR10a (HEK293, 100 μM VOC, 50 μM VUAA1 = 1, responses not exceeding 0.05 considered 0, read-out: OR10a Average response (VUAA1-normalized)) it was 0%; on Drosophila OR10a (HEK293, read-out: OR10a response (VUAA1-normalized response), VOC concentration 100 μM), 0%. Further, the Average response was found to be 0.00 on Drosophila OR47a (OR47a cell line, odorant cc. 1 µM); 0.0134 at Drosophila OR47a (OR47a cell line, odorant cc. 10 µM); 0.0175 on Drosophila OR47a (OR47a cell line, odorant cc. 100 µM). Besides, the “DF norm AVERAGE OR47a” value on Drosophila OR47a (setting [2]), on Drosophila OR47a (setting [3]) and at Drosophila OR47a (setting [4]) was 0 in each case. In addition, the “DF norm AVERAGE OR10a” value at Drosophila OR10a (setting [2]), on Drosophila OR10a (setting [3]) and on Drosophila OR10a (setting [4]) was 0 each time.

Consider `CC/C=C\CCO` [Z-3-hexenol], for which, at Drosophila OR47a (OR47a cell line, VOC concentration 1 μM), the “OR47a response (VUAA1-normalized) at 1 μM” value is 0.00. In addition, at Drosophila OR47a (OR47a cell line, VOC concentration 10 μM), the “OR47a response (VUAA1-normalized) at 10 μM” value worked out at 0.0571. Besides, the “OR47a response (VUAA1-normalized) at 100 μM” value on Drosophila OR47a (OR47a cell line, VOC concentration 100 μM) is 0.10. Also, the “OR10a response (VUAA1-normalized) at 1 μM” value on Drosophila OR10a (OR10a cell line, VOC concentration 1 μM) turned out to be 0.17. Besides, the “OR10a response (VUAA1-normalized) at 10 μM” value on Drosophila OR10a (OR10a cell line, VOC concentration 10 μM) was 0.19. For the same compound, the “OR10a response (VUAA1-normalized) at 100 μM” value on Drosophila OR10a (OR10a cell line, VOC concentration 100 μM) is reported as 0.10.

The values are drawn from article PMC10709440, “High-throughput ligand profile characterization in novel cell lines expressing seven heterologous insect olfactory receptors for the detection of volatile plant biomarkers” (Scientific Reports, 2023).
